Laboratory results from US5547975A, “Benzopyranopyrazolyl derivatives for the treatment of inflammation” (priority 1994, dated 1996).
pIC50: −log10 of the molar value.

Tests used:
Human COX I = molecular target: T1, Human COX I (Homo sapiens, UniProt P23219); assay: Evaluation of COX I activity in vitro (recombinant enzyme, PGE2 ELISA); type: biochemical; conditions: 10 μM arachidonic acid, pre-incubation 10-20 minutes, pH 8.0; read-out: Human COX I ID50
T1 construct: made in house; host or cells: SF9 insect cells, recombinant baculovirus (transfer vector pVL1393)
T1 sequence (P23219 24-599): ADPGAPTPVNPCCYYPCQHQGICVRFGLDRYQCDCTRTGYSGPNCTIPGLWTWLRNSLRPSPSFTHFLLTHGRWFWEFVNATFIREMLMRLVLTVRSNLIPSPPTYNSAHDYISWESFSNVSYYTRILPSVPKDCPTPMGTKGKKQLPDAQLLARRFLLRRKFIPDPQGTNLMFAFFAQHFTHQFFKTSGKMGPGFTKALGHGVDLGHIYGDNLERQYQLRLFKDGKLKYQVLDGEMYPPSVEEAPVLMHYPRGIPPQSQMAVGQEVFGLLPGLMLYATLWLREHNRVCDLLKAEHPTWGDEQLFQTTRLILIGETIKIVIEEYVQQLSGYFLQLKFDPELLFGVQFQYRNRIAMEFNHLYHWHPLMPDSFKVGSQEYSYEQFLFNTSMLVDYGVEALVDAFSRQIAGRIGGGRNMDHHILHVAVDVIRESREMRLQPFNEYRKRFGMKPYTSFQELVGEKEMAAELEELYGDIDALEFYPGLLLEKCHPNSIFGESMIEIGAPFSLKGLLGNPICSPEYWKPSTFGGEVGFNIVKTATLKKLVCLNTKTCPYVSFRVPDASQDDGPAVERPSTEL
From the text: (§1) Evaluation of COX I and COX II activity in vitro
(§2) a. Preparation of recombinant COX baculoviruses
(§3) A 2.0 kb fragment containing the coding region of either human or murine COX-I or human or murine COX-II was cloned into a BamH1 site of the baculovirus transfer vector pVL1393 (Invitrogen) to generate the baculovirus transfer vectors for COX-I and COX-II in a manner similar to the method of D. R. O'Reilly et al (Baculovirus Expression Vectors: A Laboratory Manual (1992)). Recombinant baculoviruses were isolated by transfecting 4 μg of baculovirus transfer vector DNA into SF9 insect cells ([…]) along with 200 ng of linearized baculovirus plasmid DNA by the calcium phosphate method. See M. D. Summers and G. E. Smith, A Manual of Methods for Baculovirus Vectors and Insect Cell Culture Procedures, Texas Agric. Exp. Station Bull. 1555 (1987). Recombinant viruses were purified by three rounds of plaque purification and high titer (10E7-10E8 pfu/ml) stocks of virus were prepared. For large scale production, SF9 insect cells were infected in 10 liter fermentors (0.5×10^6 /ml) with the recombinant baculovirus stock such that the multiplicity of infection was 0.1. After 72 hours the cells were centrifuged and the cell pellet homogenized in Tris/Sucrose (50 mM: 25%, pH 8.0) containing 1% 3-[(3-cholamidopropyl)dimethylammonio]-1-propanesulfonate (CHAPS). The homogenate was centrifuged at 10,000'G for 30 minutes, and the resultant supernatant was stored at -80° C. before being assayed for COX activity.
(§4) b. Assay for COX I and COX II activity:
(§5) COX activity was assayed as PGE2 formed/μg protein/time using an ELISA to detect the prostaglandin released. CHAPS-solubilized insect cell membranes containing the appropriate COX enzyme were incubated in a potassium phosphate buffer (50 mM, pH 8.0) containing epinephrine, phenol, and heme with the addition of arachidonic acid (10 μM). Compounds were pre-incubated with the enzyme for 10-20 minutes prior to the addition of arachidonic acid. Any reaction between the arachidonic acid and the enzyme was stopped after ten minutes at 37° C./room temperature by transferring 40 μl of reaction mix into 160 μl ELISA buffer and 25 μM indomethacin. The PGE2 formed was measured by standard ELISA technology (Cayman Chemical).

Human COX II = molecular target: T2, Human COX II (Homo sapiens, UniProt P35354); assay: Evaluation of COX II activity in vitro (recombinant enzyme, PGE2 ELISA); type: biochemical; conditions: 10 μM arachidonic acid, pre-incubation 10-20 minutes, pH 8.0; read-out: Human COX II ID50
T2 construct: made in house; host or cells: SF9 insect cells, recombinant baculovirus (transfer vector pVL1393)
T2 sequence (P35354 18-604): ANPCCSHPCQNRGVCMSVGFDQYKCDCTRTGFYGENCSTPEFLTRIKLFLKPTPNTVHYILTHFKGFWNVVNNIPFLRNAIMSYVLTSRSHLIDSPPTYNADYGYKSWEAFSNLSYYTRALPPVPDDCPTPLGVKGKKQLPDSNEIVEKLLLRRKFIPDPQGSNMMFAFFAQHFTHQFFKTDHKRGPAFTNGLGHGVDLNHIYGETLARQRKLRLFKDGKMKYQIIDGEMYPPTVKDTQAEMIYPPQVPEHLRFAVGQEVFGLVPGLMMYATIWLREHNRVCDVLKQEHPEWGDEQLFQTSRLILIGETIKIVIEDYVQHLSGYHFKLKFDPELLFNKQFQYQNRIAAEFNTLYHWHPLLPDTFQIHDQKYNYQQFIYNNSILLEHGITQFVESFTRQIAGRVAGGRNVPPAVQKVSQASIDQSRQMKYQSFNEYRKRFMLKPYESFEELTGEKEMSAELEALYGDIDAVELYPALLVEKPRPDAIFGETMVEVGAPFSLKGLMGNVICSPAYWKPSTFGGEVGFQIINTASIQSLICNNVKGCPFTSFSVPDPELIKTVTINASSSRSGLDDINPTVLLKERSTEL
Description: as §1
The COX II inhibition activity of the compounds of this invention illustrated in the Examples was determined by the following methods.
as §2, §3, §4, §5

[1] = system: carrageenan-induced hyperalgesic foot withdrawal; assay: Rat Carrageenan-induced Analgesia Test; type: in vivo, rat (male Sprague-Dawley); conditions: oral, @ 30 mg/ka body weight, 3 hours after carrageenan injection
Description: Rat Carrageenan-induced Analgesia Test
The analgesia test using rat carrageenan was performed with materials, reagents and procedures essentially as described by Hargreaves, et al., (Pain, 32, 77 (1988)). Male Sprague-Dawley rats were treated as previously described for the Carrageenan Foot Pad Edema test. Three hours after the injection of the carrageenan, the rats were placed in a special plexiglass container with a transparent floor having a high intensity lamp as a radiant heat source, positionable under the floor. After an initial twenty minute period, thermal stimulation was begun on either the injected foot or on the contralateral uninjected foot. A photoelectric cell turned off the lamp and timer when light was interrupted by paw withdrawal. The time until the rat withdraws its foot was then measured. The withdrawal latency in seconds was determined for the control and drug-treated groups, and percent inhibition of the hyperalgesic foot withdrawal determined.

[2] = system: carrageenan foot pad edema (rat paw edema); assay: Rat Carrageenan Foot Pad Edema Test; type: in vivo, rat (male Sprague-Dawley); conditions: oral, @ 30 mg/ka body weight, 3 hours after carrageenan injection
Description: Rat Carrageenan Foot Pad Edema Test
Male Sprague-Dawley rats were selected in each group so that the average body weight was as close as possible. Rats were fasted with free access to water for over sixteen hours prior to the test. […] One hour later a subplantar injection of 0.1 mL of 1% solution of carrageenan/sterile 0.9% saline was administered and the volume of the injected foot was measured with a displacement plethysmometer connected to a pressure transducer with a digital indicator. Three hours after the injection of the carrageenan, the volume of the foot was again measured.

Row | Structure (SMILES) | pIC50 (Human COX I) | pIC50 (Human COX II) | ANALGESIA % Inhibition [1] | RAT PAW EDEMA % Inhibition [2]
1 | COc1ccc2c(c1F)CSc1c(C(F)(F)F)nn(-c3ccc(S(C)(=O)=O)cc3)c1-2 [Example 2, 1,5-Dihydro-6-fluoro-7-methoxy-1-[(4-methylsulfonyl)phenyl]-3-(trifluoromethyl)-[2]benzothiopyrano[4,3-c]pyrazole] | < 4.00 | > 7.00 | 29% | 
2 | NS(=O)(=O)c1ccc(-n2nc(C(F)(F)F)c3c2-c2cc(Cl)sc2CS3)cc1 [Example 21, 4-[7-Chloro-1,5-dihydro-3-trifluoromethyl-thieno[3',2':4,5]thiopyrano[3,2-c]pyrazol-1-yl]benzenesulfonamide] | 5.06 | > 7.00 |  | 26%
3 | COc1ccc2c(c1F)CSCc1c(C(F)(F)F)nn(-c3ccc(S(N)(=O)=O)cc3)c1-2 [Example 30, 4-[4,6-dihydro-7-fluoro-8-methoxy-3-(trifluoromethyl)-[2]benzothiepino[5,4-c]pyrazol-1-yl]benzenesulfonamide] | 4.13 | 5.66 |  | 
